According to publication PMC9732253, “Inhibition of the Phosphatidylinositol-3 Kinase Pathway Using Bimiralisib in Loss-of-Function NOTCH1-Mutant Head and Neck Cancer” (The Oncologist, 2022):

Method: All patients received 140 mg bimiralisib (PQR309) orally once daily on 2 consecutive days followed by 5 days without treatment weekly until unacceptable toxicity, tumor progression, patient request for withdrawal, investigator judgment, or death.
Radiologic tumor assessments were performed using computed tomography at baseline and every 6 weeks. Safety was continuously monitored.

Nc1cc(C(F)(F)F)c(-c2nc(N3CCOCC3)nc(N3CCOCC3)n2)cn1 [Bimiralisib, 5-(4,6-dimorpholino-1,3,5-triazin-2-yl)-4-(trifluoromethyl)pyridin-2-amine]
8 patients: Patients with at least one treatment-emergent AE (of 8)
4: Respiratory, thoracic and mediastinal disorders, Grade 3/4, total number of events (n = 8) | Skin and subcutaneous tissue disorders, Grade 1, total number of events (n = 8)
10: Nonfatal SAEs not related to bimiralisib (on-treatment period)
1: Presyncope, Grade 2, total number of events (n = 8) | Pruritus, Grade 1, total number of events (n = 8) | Pyrexia, Grade 1, total number of events (n = 8) | Renal and urinary disorders, Grade 1, total number of events (n = 8) | Renal and urinary disorders, Grade 3/4, total number of events (n = 8) | Renal injury, Grade 3/4, total number of events (n = 8) | Respiratory, thoracic and mediastinal disorders, Grade 1, total number of events (n = 8) | Seizure, Grade 1, total number of events (n = 8) | Sepsis, Grade 3/4, total number of events (n = 8) | Skin infection, Grade 3/4, total number of events (n = 8) | Sunburn, Grade 1, total number of events (n = 8) | Tinnitus, Grade 1, total number of events (n = 8) | Urinary tract discomfort, Grade 1, total number of events (n = 8) | Vascular disorders, Grade 1, total number of events (n = 8) | Vascular disorders, Grade 3/4, total number of events (n = 8)
1 (12.5) n (%): Presyncope, Grade 2, patients (n = 8) | Pruritus, Grade 1, patients (n = 8) | Pyrexia, Grade 1, patients (n = 8) | Renal and urinary disorders, Grade 1, patients (n = 8) | Renal and urinary disorders, Grade 3/4, patients (n = 8) | Renal injury, Grade 3/4, patients (n = 8) | Respiratory, thoracic and mediastinal disorders, Grade 1, patients (n = 8) | Seizure, Grade 1, patients (n = 8) | Sunburn, Grade 1, patients (n = 8) | Tinnitus, Grade 1, patients (n = 8) | Urinary tract discomfort, Grade 1, patients (n = 8) | Vascular disorders, Grade 1, patients (n = 8) | Vascular disorders, Grade 3/4, patients (n = 8)
2 (25.0) n (%): Pneumonia aspiration, Grade 3/4, patients (n = 8) | Psychiatric disorders, Grade 1, patients (n = 8) | Rash, Grade 1, patients (n = 8) | Skin and subcutaneous tissue disorders, Grade 1, patients (n = 8) | Vomiting, Grade 2, patients (n = 8)
0: Pneumonia aspiration, Grade 2, total number of events (n = 8) | Presyncope, Grade 1, total number of events (n = 8) | Presyncope, Grade 3/4, total number of events (n = 8) | Pruritus, Grade 2, total number of events (n = 8) | Pruritus, Grade 3/4, total number of events (n = 8) | Psychiatric disorders, Grade 2, total number of events (n = 8) | Psychiatric disorders, Grade 3/4, total number of events (n = 8) | Pyrexia, Grade 2, total number of events (n = 8) | Pyrexia, Grade 3/4, total number of events (n = 8) | Rash, Grade 2, total number of events (n = 8) | Rash, Grade 3/4, total number of events (n = 8) | Renal and urinary disorders, Grade 2, total number of events (n = 8) | Renal injury, Grade 1, total number of events (n = 8) | Renal injury, Grade 2, total number of events (n = 8) | Respiratory, thoracic and mediastinal disorders, Grade 2, total number of events (n = 8) | Seizure, Grade 2, total number of events (n = 8) | Seizure, Grade 3/4, total number of events (n = 8) | Skin and subcutaneous tissue disorders, Grade 2, total number of events (n = 8) | Skin and subcutaneous tissue disorders, Grade 3/4, total number of events (n = 8) | Sunburn, Grade 2, total number of events (n = 8) | Sunburn, Grade 3/4, total number of events (n = 8) | Tinnitus, Grade 2, total number of events (n = 8) | Tinnitus, Grade 3/4, total number of events (n = 8) | Urinary tract discomfort, Grade 2, total number of events (n = 8) | Urinary tract discomfort, Grade 3/4, total number of events (n = 8) | Vascular disorders, Grade 2, total number of events (n = 8) | Vomiting, Grade 1, total number of events (n = 8) | Vomiting, Grade 3/4, total number of events (n = 8) | Wound infection, Grade 3/4, total number of events (n = 8)
3 (37.5) n (%): Respiratory, thoracic and mediastinal disorders, Grade 3/4, patients (n = 8)
28 days: Time to normalization of grade 3 elevated alanine and aspartate aminotransferase after therapy discontinuation (patient 4, related to treatment)
0 n (%): Presyncope, Grade 1, patients (n = 8) | Presyncope, Grade 3/4, patients (n = 8) | Pruritus, Grade 2, patients (n = 8) | Pruritus, Grade 3/4, patients (n = 8) | Psychiatric disorders, Grade 2, patients (n = 8) | Psychiatric disorders, Grade 3/4, patients (n = 8) | Pyrexia, Grade 2, patients (n = 8) | Pyrexia, Grade 3/4, patients (n = 8) | Rash, Grade 2, patients (n = 8) | Rash, Grade 3/4, patients (n = 8) | Renal and urinary disorders, Grade 2, patients (n = 8) | Renal injury, Grade 1, patients (n = 8) | Renal injury, Grade 2, patients (n = 8) | Respiratory, thoracic and mediastinal disorders, Grade 2, patients (n = 8) | Seizure, Grade 2, patients (n = 8) | Seizure, Grade 3/4, patients (n = 8) | Skin and subcutaneous tissue disorders, Grade 2, patients (n = 8) | Skin and subcutaneous tissue disorders, Grade 3/4, patients (n = 8) | Sunburn, Grade 2, patients (n = 8) | Sunburn, Grade 3/4, patients (n = 8) | Tinnitus, Grade 2, patients (n = 8) | Tinnitus, Grade 3/4, patients (n = 8) | Urinary tract discomfort, Grade 2, patients (n = 8) | Urinary tract discomfort, Grade 3/4, patients (n = 8) | Vascular disorders, Grade 2, patients (n = 8) | Vomiting, Grade 1, patients (n = 8) | Vomiting, Grade 3/4, patients (n = 8)
2: Pneumonia aspiration, Grade 3/4, total number of events (n = 8) | Psychiatric disorders, Grade 1, total number of events (n = 8) | Rash, Grade 1, total number of events (n = 8) | Vomiting, Grade 2, total number of events (n = 8)
